Read-outs that look alike come from different tables or passages of the source.
Assays:
[1] = system: A 549 non-small cell lung xenograft; assay: Example 4-B antitumor efficacy, ectopic A549 NSCLC xenograft model; assay type: in vivo, female nude mice (nu/nu); details: 10 mg/kg ip QD × 5/wk × 2 wks
From the text: (§1) Specific pathogen-free homozygous female nude mice (nu/nu, Charles River Laboratories) were used. Mice were given food and water ad libitum and housed in microisolator cages. Four to six week old animals were identified by microchips (Locus Technology, Manchester, Md., USA) at the time of the experiments. All animal studies were approved by the Institutional Animal Care and Use Committee at Threshold Pharmaceuticals, Inc.
(§2) All cell lines were from the American Type Culture Collection (ATCC, Rockville, Md., USA).
(§3) Cells were mixed with Matrigel (50% with exception for 30% in the H460) and 0.2 ml per mouse were subcutaneously implanted to the flank area of the animals. When tumor size reached 100-150 250 mm3, mice were randomized into experimental or vehicle groups with 10 mice/group and treatment was started (Day 1). The tested compounds were formulated in 5% DMSO in D5W. The regimens employed in the examples include IP, QD×5/wk (5 days on, 2 days off) as one cycle, for a total of 2 cycles; IP, once; IP, weekly for total 3 weeks; and IV, weekly for 3 weeks. Tumor growth and body weight were measured twice a week. Tumor volume was calculated as (length×width2)/2. Drug efficacy was assessed as Tumor Growth Inhibition (TGI) and Tumor Growth Delay (TGD). TGI was defined as (1−ΔT/ΔC)×100, where ΔT/ΔC presented the ratio of the change in mean (or median, if variation within the group was relatively large) tumor volume of the treated group and of the control group. TGD was calculated as the extra days for the treated tumor to reach 500 mm3 or 1000 mm3 as compared to the control group. Animals were culled when individual tumor size reached over 2000 mm3 or mean tumor volume exceeded 1000 mm3 in the group. Data are expressed as the mean±SEM. One-way analysis of variance with Dunnett post comparison test (GraphPad Prism 4) or two-tailed student's t-test were used for analysis. A P level <0.05 was considered statistically significant.
The dosing was as follows. Daily IP dosing: 5 doses then 2 days off then 5 more doses starting at 110 mm^3 tumors on day 1 (10 animals per group average tumor volume).
Doses were selected by first doing a toxicity test in CD1 mice as described above. The compounds were tested against Thio-tepa.

[2] = system: A375 melanoma human tumor xenograft; assay: Example 4-C antitumor efficacy, ectopic A375 melanoma xenograft model; assay type: in vivo, female nude mice (nu/nu); details: qd × 5 × 2, ip
From the text: as §1, §2, §3
his study employed an A375 melanoma human tumor xenograft model and various compounds provided herein were compared to thiotepa and the approved anti melanoma drug, nab-Paclitaxel.

[3] = system: H460 cells; assay: Proliferation assay in H460 cells (2 hr exposure, AlamarBlue); assay type: cell-based, human; details: Homo sapiens, NCI-H460, 2 hrs exposure, wash, 70 hrs growth, read-out: IC 50 in proliferation assay in H460 cells
How it was run: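 H460 cells seeded at 4×10^3/well, grown 24 h, then exposed to compound for 2 h at 37 °C. Drug was washed off and cells were regrown 70 h in fresh medium. Viable cells were read by AlamarBlue, and IC50 was taken as the concentration giving 50% growth inhibition.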

[4] = Example 4-B body weight change, A549 xenograft study; assay type: in vivo, female nude mice (nu/nu); details: 10 mg/kg ip QD × 5/wk × 2 wks
Experimental: as §3
Antitumor effects of compounds provided herein were determined on A 549 non-small cell lung xenograft model in comparison with a chemotherapy agent, thiotepa. The dosing was as follows. Daily IP dosing: 5 doses then 2 days off then 5 more doses starting at 110 mm^3 tumors on day 1 (10 animals per group average tumor volume). The antitumor effects and the safety of administration are graphically illustrated below.

[5] = Example 4-C body weight change, A375 xenograft study; assay type: in vivo, female nude mice (nu/nu); details: 10 mpk, qd × 5 × 2, ip
Experimental: as §3
his study employed an A375 melanoma human tumor xenograft model and various compounds provided herein were compared to thiotepa and the approved anti melanoma drug, nab-Paclitaxel. The antitumor effects and the safety of administration are graphically illustrated below.

[6] = Pharmacokinetics in CD-1 mice following a single intraperitoneal dose (parent and TH2660); details: mouse, in vivo, ip, parent compound
Experimental: The pharmacokinetics of TH2873, TH2883, TH2888, TH2890, TH2901 and TH2926 were determined in CD-1 mice following a single intraperitoneal dose.
The pharmacokinetics of TH2660, the active metabolite, following a single intraperitoneal dose of TH2873, TH2883, TH2888, TH2890, TH2901 and TH2926 are shown below.

[7] = Example 4-F body weight change, H460 xenograft study; assay type: in vivo, female nude mice (nu/nu); details: ip
Experimental: as §3
(§4) The compounds TH-2953 and TH-3040 were tested in a H460 model. The compounds were dosed as follows. A dose-dependent TH-2953 was given IP once, from 6.25 to 100 mg/kg, comparing with daily IP: 5 doses then 2 days off then 5 more doses starting at 100 mm^3 tumors on day 1 (10 animals per group average tumor volume). TH-3040 was administered IP once. The antitumor effects and the safety of administration are graphically illustrated below.

[8] = system: H460 NSCLC xenograft; assay: Example 4-F antitumor efficacy, ectopic H460 NSCLC xenograft model; assay type: in vivo, female nude mice (nu/nu); details: ip
From the text: as §1, §2, §3, §4

[9] = Pharmacokinetics of TH2953 in NU/NU mice with A549 and H460 xenografts; assay type: in vivo, Mouse/Nu-Foxn 1nu NU/NU mice; details: Nu-Foxn1nu NU/NU, mouse; for Kp: intraperitoneal, A549 tumor xenograft, 10 and 40 mg/kg ip; for AUC / Cmax / Tmax / half-life: plasma, ip
Experimental: The pharmacokinetics of TH2660, the active metabolite, following a single iintraperitoneal dose of TH2953 are shown below.
A549 and H460, following a single intraperitoneal dose of 10 and 40 mg/kg for A549 and 10 mg/kg for H460. TH2953 concentrations in the brain, liver and tumor were 55.0-73.8%, 297-541% and 2.08-8.34% of the concentrations in plasma in the A549 tumor xenograft. […] In the A549 xenograft, the preferential activation of TH2953 was more pronounced as the concentrations of TH2660 in the tumor were ˜5-7-fold greater than for TH2953, while they were only ˜13-15% in the liver.

[10] = system: A549 NSCLC xenograft; assay: Example 4-D antitumor efficacy, ectopic A549 NSCLC xenograft model; assay type: in vivo, female nude mice (nu/nu); details: 40 mg/kg IP QD × 5/wk × 2 wks
From the text: as §1, §2, §3
(§5) The compounds were tested in another A549 model. The compounds were dosed as follows. Daily IP dosing: 5 doses then 2 days off then 5 more doses starting at 100 mm^3 tumors on day 1 (10 animals per group average tumor volume). The antitumor effects and the safety of administration are graphically illustrated below.

[11] = Example 4-D body weight change and lethal toxicity, A549 xenograft study; assay type: in vivo, female nude mice (nu/nu); details: 40 mg/kg IP QD × 5/wk × 2 wks
Experimental: as §3, §5

[12] = Example 4-G body weight change, H460 xenograft study; assay type: in vivo, female nude mice (nu/nu); details: ip, Q7D × 3
Experimental: as §3
(§6) The compounds TH-3040 and TH-3045 were tested in a H460 model. The compounds were dosed as follows. A dose-dependent TH-3040 or TH-3045 was given IP weekly for 3 weeks, from 5 to 45 mg/kg starting at 100 mm^3 tumors on day 1 (10 animals per group average tumor volume). The antitumor effects and the safety of administration are graphically illustrated below.

[13] = system: H460 NSCLC xenograft; assay: Example 4-G antitumor efficacy, ectopic H460 NSCLC xenograft model; assay type: in vivo, female nude mice (nu/nu); details: ip, Q7D × 3
From the text: as §1, §2, §3, §6

[14] = system: H460 NSCLC xenograft; assay: Example 4-I antitumor efficacy, ectopic H460 NSCLC xenograft model; assay type: in vivo, female nude mice (nu/nu); details: 10 mg/kg, iv, Q7D × 3
From the text: as §1, §2, §3
(§7) The compound TH-2870 was tested in a H460 model. The compound was dosed follows. 1.5, 5 or 15 mg/kg, IV, weekly for 3 weeks at 250 mm^3 tumors on day 1 (10 animals per group average tumor volume), comparing with docetaxel. The antitumor effects and the safety of administration are graphically illustrated below.

[15] = Example 4-I body weight change, H460 xenograft study; assay type: in vivo, female nude mice (nu/nu); details: 10 mg/kg, iv, Q7D × 3
Experimental: as §3, §7

[16] = Example 4-A body weight change, H460 xenograft study; assay type: in vivo, female nude mice (nu/nu); details: 60 mg/kg ip Q3D × 5
Experimental: as §3, with “A P level <0.05 was considered statistically significant.” left out

[17] = system: H460 non-small cell lung cancer xenograft tumor; assay: Example 4-A antitumor efficacy, ectopic H460 NSCLC xenograft model; assay type: in vivo, female nude mice (nu/nu); details: 60 mg/kg ip Q3D × 5; H460
From the text: as §1, §2, §3
Compounds provided herein were tested in vivo human tumor xenograft models and compared to standard chemotherapeutic agents such as gemcitabine, nab-paclitaxel. […] The compound was dosed as follows: daily IP dosing: 5 doses then 2 days off then 5 more doses starting at 100 mm^3 tumors on day 1 (10 animals per group median tumor volume). It is contemplated that in some embodiments, the compounds provided herein are activated by human and not by mouse enzymes. The antitumor effects and the safety of administration are graphically illustrated in FIGS. 3-20 below.

[18] = 10 mg/kg, TH2953 10 mg/kg single ip, A549 xenograft
[19] = 10 mg/kg, TH2953 10 mg/kg single ip, H460 xenograft
[20] = 40 mg/kg, TH2953 40 mg/kg single ip, A549 xenograft

CN(C)C(=O)c1cccc(Oc2cc(COP(=O)(N3CC3)N3CC3)ccc2[N+](=O)[O-])c1 [Compound 2889]
TGD 500 [1]: 62 days
TGI [1]: 90.1%
TGD 500 ([2]; 10 mpk): 13 days
TGD 1000 ([2]; 10 mpk): 15 days
inhibition in vivo at 10 mg/kg ([2]; Mus musculus, A-375, 10 mpk, read-out: TGI): 75.6%
IC50 [3]: 3 nM
Max. BW loss % [4]: 1.1%
Max. BW loss % [5]: 0%
AUC [6]: 598 ng·h/mL
Cmax [6]: 2480 ng/mL
Tmax [6]: 5 min
half-life [6]: 10.3 min

CC(OP(=O)(N1CC1)N1CC1)c1ccc([N+](=O)[O-])c(Oc2ccc(-c3ccccc3)cc2)c1 (centres unmarked) [Compound 2953]
Max. BW loss % ([7]; 6.25 mpk, once): 0.0%
Max. BW loss % ([7]; 12.5 mpk, once): 0.0%
Max. BW loss % ([7]; 25 mpk, once): 0.2%
Max. BW loss % ([7]; 40 mpk, QD × 5/wk × 2ks): 0.0%
Max. BW loss % ([7]; 50 mpk, once): 0.0%
Max. BW loss % ([7]; 100 mpk, once): 0.0%
TGD 500 ([8]; 6.25 mpk, once): 16 days
TGD 1000 ([8]; 6.25 mpk, once): 17 days
TGI ([8]; 6.25 mpk, once): 72.2%
TGD 500 ([8]; 12.5 mpk, once): 18 days
TGD 1000 ([8]; 12.5 mpk, once): 21 days
TGI ([8]; 12.5 mpk, once): 78.2%
TGD 500 ([8]; 25 mpk, once): 18 days
TGD 1000 ([8]; 25 mpk, once): 20 days
TGI ([8]; 25 mpk, once): 86.1%
TGD 500 ([8]; 40 mpk, QD × 5/wk × 2ks): 54 days
TGD 1000 ([8]; 40 mpk, QD × 5/wk × 2ks): 65 days
TGI ([8]; 40 mpk, QD × 5/wk × 2ks): 105.8%
TGD 500 ([8]; 50 mpk, once): 19 days
TGD 1000 ([8]; 50 mpk, once): 19 days
TGI ([8]; 50 mpk, once): 90.4%
TGD 500 ([8]; 100 mpk, once): 24 days
TGD 1000 ([8]; 100 mpk, once): 27 days
TGI ([8]; 100 mpk, once): 97.7%
IC50 [3]: 5 nM
Kp ([9]; brain (relative to plasma), read-out: concentration in the brain as % of the concentrations in plasma): 0.55 to 0.738
Kp ([9]; liver (relative to plasma), read-out: concentration in the liver as % of the concentrations in plasma): 2.97 to 5.41
AUC [9, 18]: 4430 ng·h/mL
Cmax [9, 18]: 149 ng/mL
Tmax [9, 18]: 30 min
half-life [9, 18]: 100 min
AUC [9, 19]: 7400 ng·h/mL
Cmax [9, 19]: 2330 ng/mL
Tmax [9, 19]: 15 min
half-life [9, 19]: 142 min
AUC [9, 20]: 39000 ng·h/mL
Cmax [9, 20]: 14800 ng/mL
Tmax [9, 20]: 30 min
half-life [9, 20]: 91.3 min
Kp ([9]; tumor (relative to plasma), read-out: concentration in the tumor as % of the concentrations in plasma): 0.0208 to 0.0834
TGD 500 [10]: 64 days
TGI [10]: 93.8%
Max. BW loss % [11]: 1.6%
Lethal Tox ([11]; 10 animals per group): 0

C[C@@H](OP(=O)(N1CC1)N1CC1)c1ccc([N+](=O)[O-])c(Oc2ccc(-c3ccccc3)cc2)c1 [Compound 3045]
IC50 [3]: 4 nM
Max BW loss ([12]; 5 mpk): 0.0%
Max BW loss ([12]; 15 mpk): 2.8%
Max BW loss ([12]; 45 mpk): 2.4%
TGD 500 ([13]; 5 mpk): 48 days
TGI ([13]; 5 mpk): 104.0%
TGD 500 ([13]; 15 mpk): 70 days
TGI ([13]; 15 mpk): 104.8%
TGD 500 ([13]; 45 mpk): 86 days
TGI ([13]; 45 mpk): 106.3%

CC(=O)O[C@@]12CO[C@@H]1C[C@H](O)[C@@]1(C)C(=O)[C@H](O)C3=C(C)[C@@H](OC(=O)[C@H](O)[C@@H](NC(=O)OC(C)(C)C)c4ccccc4)C[C@@](O)([C@@H](OC(=O)c4ccccc4)[C@H]21)C3(C)C [Doectaxel, docetaxel, reference compound]
TGD500, Days (vs. vehicle) ([14]; H460): 6 days
TGD1000, Days (vs. vehicle) ([14]; H460): 9 days
TGI ([14]; H460, 250 mm3 tumors on day 1): 51.3%
Max. BW loss % [15]: 12.4%

Nc1ccn([C@@H]2O[C@H](CO)[C@@H](O)C2(F)F)c(=O)n1 [GEM, gemcitabine, reference compound]
Max. BW loss % [16]: 4.9%
TGD 500 [17]: 7 days
TGD 1000 [17]: 7 days
TGI [17]: 42.7%

From patent publication US10766914B2, “DNA alkylating agents” (OBI PHARMA, INC., priority 2015, dated 2020)
